Measured values reported in patent publication US6365618B1, “Administration of carvedilol to mitigate tardive movement disorders, psychosis, mania, and depression” (priority 2000, dated 2002).

Tests used:
[1] = test system: orofacial movements caused by haloperidol; settings: one-day and two-week trials; cited from earlier work
tardive dyskinesia [2] = assay: Case reports: oral carvedilol in hospitalized patients with tardive dyskinesia; type: in vivo, human
Protocol: (§1) Clozapine is recognized as a drug that, because of dangerous side-effects, is reserved as the last resort after the failure of long courses and high doses of several other antipsychotic medications. […] Carvedilol 6.25 mg once daily was then started. On 11/15 the carvedilol dose was increased to 6.25 mg twice daily. […] On the ninth hospital day carvedilol was discontinued.
On the first hospital day carvedilol 3.125 mg twice daily was started. […] Carvedilol was then restarted. […] Carvedilol was continued for a month.
This person was admitted to the hospital for the treatment of an anxiety disorder whose symptoms included insomnia, nightmares, unhappiness, suicidality, continual worry, and panic attacks. They had previously taken the antidepressants nortriptyline and fluoxetine, and was taking nefazodone 375 mg/day for one year. They were also taking the antihypertensive medication benazepril 40 mg/day, and the sleeping medication zaleplon 10 mg/day. […] They then received carvedilol 3.125 mg twice daily.
This person was in the hospital because of difficulty swallowing. […] This aspiration put them at risk of aspiration pneumonia, which is disabling and can be life-threatening. For them to receive water and food a tube was surgically inserted between their stomach and the outside of their abdomen. […] They then received carvedilol 6.25 mg twice daily.

tardive dystonia = assay: Case report: oral carvedilol, tardive dystonia and swallowing difficulty; type: in vivo, human; settings: Case #4; carvedilol 6.25 mg twice daily; 28 hours, after three doses
From the text: This person was in the hospital because of difficulty swallowing. This began about a year prior to hospitalization while taking haloperidol and lithium medications. Increasingly they would cough while eating or drinking. […] The swallowing difficulty worsened despite replacement of lithium and haloperidol with divalproex and olanzapine. […] This aspiration put them at risk of aspiration pneumonia, which is disabling and can be life-threatening. For them to receive water and food a tube was surgically inserted between their stomach and the outside of their abdomen. […] When they tried to drink water from a cup these movements obviously interfered with swallowing. […] On the Abnormal Involuntary Movement SCALE (AIMS) they scored 13. They then received carvedilol 6.25 mg twice daily. Twenty-eight hours later, after three doses, their swallowing was rated by the Speech Therapy Department as 70% improved.

[3] = Side effects of carvedilol in patients; type: in vivo, human
Protocol: as §1

[4] = cited from earlier work
tardive akathisia = assay: Case reports: oral carvedilol, agitated movements of tardive akathisia; type: in vivo, human
From the text: These movements were consistent with tardive dyskinesia. […] They mentioned having been told by several psychiatrists that […] has tardive dyskinesia, and that […]'d previously taken numerous different antipsychotic drugs, including risperidone, olanzapine, and clozapine. Clozapine is recognized as a drug that, because of dangerous side-effects, is reserved as the last resort after the failure of long courses and high doses of several other antipsychotic medications. On the third hospital day, a Friday (Nov. 13, 1998), the tongue protrusion movements continued unchanged. Carvedilol 6.25 mg once daily was then started. On 11/15 the carvedilol dose was increased to 6.25 mg twice daily. When next evaluated, at 9am on Monday 11/16, the tongue protrusions were absent. The absence of dyskinesia persisted despite the patient's repeated expressions of anxiety and anxious thoughts. […] Agitation then decreased, a sign of improvement in tardive akathisia. On the ninth hospital day carvedilol was discontinued. The patient was discharged on the 15th hospital day, without recurrence of any tongue protrusion, and without observable agitation. […] They spontaneously complained that children in their neighborhood mocked them and called them a witch because of the tongue movements. They stated that […] avoids leaving the house because of harassment by the children. […]

[5] = cited from earlier work; remark: listed apart in the source
[6] = test system: acute dystonias induced by antipsychotic medication; settings: monkeys; cited from earlier work
tardive dyskinesia [7] = settings: most studies; cited from earlier work
[8] = Case #3, carvedilol 3.125 mg twice daily, 24 hours, after two doses

Q: Which “orofacial movements caused by haloperidol” value [1] does the source give for `CC(C)NCC(O)COc1cccc2ccccc12` (stereo not drawn) [propranolol] here?
A: The value was “did not diminish”.

Q: What does the source list for `COc1ccccc1OCCNCC(O)COc1cccc2[nH]c3ccccc3c12` (racemic) [carvedilol, ±-1-(carbazol-4-yloxy)-3-[[2-(o-methyoxyphenoxy)ethyl]amino]-2-propanol]?
A: tongue protrusions (tardive dyskinesia [2]; Case #1, carvedilol 6.25 mg once daily, then twice daily, evaluated after 3 days): absent; tongue protrusions (tardive dyskinesia [2]; Case #2, carvedilol 3.125 mg twice daily, next day): no extensions of the tongue out of the mouth occurred; tongue protrusions after carvedilol restarted (tardive dyskinesia [2]; Case #2, rehospitalized, carvedilol restarted, beginning on the next day): no longer seen; chewing movements (tardive dyskinesia [2]; [8]): gone; lip and tongue movements (tardive dyskinesia [2]; [8]): in normal range; AIMS score (Abnormal Involuntary Movement Scale) (tardive dyskinesia [2]; Case #3, carvedilol 3.125 mg twice daily, 24 hours, after two doses, score before treatment 11): 6; tongue dyskinesia (tardive dyskinesia [2]; Case #4, carvedilol 6.25 mg twice daily, 28 hours, after three doses): decreased from mild to marginal; AIMS score (Abnormal Involuntary Movement Scale) (tardive dyskinesia [2]; Case #4, carvedilol 6.25 mg twice daily, 28 hours, after three doses, score before treatment 13): 8; facial dystonia (tardive dystonia): disappeared; neck dystonia (tardive dystonia): decreased from moderate to mild; swallowing improvement rated by Speech Therapy Department (tardive dystonia): 70%; faintness or bradycardia ([3]; Case #1, carvedilol 6.25 mg twice daily): lack of any faintness or bradycardia; side effects ([3]; usually effective doses to treat TD): non-existent or mild; average elimination half-life ([4]; from the human body): about 8 hours; absorption ([4]; taken by mouth): rapid and complete; agitation (sign of tardive akathisia) (tardive akathisia; Case #1, carvedilol 6.25 mg in the morning and 12.5 mg at bedtime): decreased; agitated movements consistent with tardive akathisia (tardive akathisia; Case #2, at discharge after one week of carvedilol): no agitated movements; in vitro antioxidant activity [5]: exceptionally potent

Q: For `C#CCN(C)Cc1ccccc1` [pargyline], which “acute dystonias induced by antipsychotic medication” value [6] is on record?
A: Its value is “reduced”.

Q: With vitamin E as the compound, how does the “improvement of TD” value (tardive dyskinesia [7]) read?
A: Its value is “no significant improvement”.
